Source: patent US20090286862A1, “Therapeutic agent for psychoneurotic disease” (ONO PHARMACEUTICAL CO., LTD., priority 2004, published 2009)
Where a name gives a salt, the structure may show the parent alone.

What was measured:
Assay type in all cases: in vivo
[1] = tested on: corticosterone elevation evoked by administration of sulprostone; test: Inhibitory activity for corticosterone elevation evoked by administration of sulprostone; conditions: Male CD (SD) IGS rat; 10 mg/kg orally 1 hour before sulprostone 0.3 mg/kg subcutaneously; blood 1 hour after
Description: Inhibitory Activity for Corticosterone Elevation Evoked by Administration of Sulprostone
Male CD (SD) IGS rat were orally administrated EP3 antagonist [compound (I), compound (II) and compound (III) (respectively, 10 mg/5 mL/kg (0.5% methylcellulose suspension))], the control group were orally administrated 0.5% methylcellulose suspension (5 mL/kg). After being administered for an hour, all groups were administered sulprostone subcutaneously (0.3 mg/4 mL/kg). In contrast, non-evoked group were orally administrated 0.5% methylcellulose suspension (5 mL/kg), and after being administered for an hour, administered physiological saline subcutaneously (4 mL/kg). After 1 hour from subcutaneous administration, rats of all groups were collected blood. The withdrawn blood was added EDTA and aprotinin, centrifuged (12,000 rpm, 3 minutes), and measured the corticosterone concentration in the supernatant by using the method of EIA (Bachem Inc.) or ELISA (Endocrine Technologies Inc.).

[2] = tested on: olfactory bulbectomy rat; test: Score of emotional responses in olfactory bulbectomy rat (antidepressant effect); conditions: for score of emotional responses: seventh day, Male Wistar olfactory bulbectomy rat, 10 mg/kg orally twice a day for 7 days, control group 20.1±0.7, sham 3.7±3.4
Excerpt: (§1) Antidepressant Effect and Antianxiety Effect for Olfactory Bulbectomy Rat
(§2) Male Wistar rat was anesthetized by injection of pentobarbital sodium, and fixed the head on a brain positioner. Either side of the bulbus olfactorius region of the head was drilled a hole with dental drill after the scalp incision. The either side of the bulbus olfactorius was aspirated and removed with an aspirator and then, the head was stitched up the scalp. The rat was defined as an olfactory bulbectomy animal. Alternatively, a sham surgery animal was anesthetized, fixed the brain, incised the scalp as well as the olfactory bulbectomy animal. The either side of the bulbus olfactorius region of the head was drilled a hole, and the either side of the bulbus olfactorius was not aspirated and removed and then, the head was stitched up the scalp. The olfactory bulbectomy animals were bred with isolated alone. In contrast, the sham surgery animals were not bred with isolated alone.
The olfactory bulbectomy animals were orally administered each the compound (I) of the present invention (10 mg/kg), the compound as positive control (desipramine hydrochloride (10 mg/kg); Wako Pure Chemical Industries, Ltd.), and control (0.5% methylcellulose suspension (5 mL/kg)) twice a day for 7 days. At that time, reactivity of emotional responses for 10 minutes for the first dosage one hour later of the first day and the seventh day was marked in accordance with an evaluation standard based on Gomi's method (Gomitami, other four people, Japanese pharmacologic magazine, 1983, Vol. 82, p 267-292).

[3] = tested on: olfactory bulbectomy rat; test: Elevated plus-maze in olfactory bulbectomy rat (antianxiety effect); conditions: for antianxiety effect: elevated plus-maze
Excerpt: as §1, §2
Furthermore, each the olfactory bulbectomy animals and the sham surgery animals administered the compound (I) of the present invention, desipramine hydrochloride or control were located the center of platform toward the open arms on the elevated plus-maze for 10 minutes for the first dosage one hour later of the eighth day, and it was measured within a 5 minutes period. Each the time (second) in the open arms and the close arms were measured with video-imaging behavioral analysis equipment.

Compound | corticosterone elevation (corticosterone concentration in blood) [1] | antidepressant effect ([2]; olfactory bulbectomy rat) | antianxiety effect [3] | effective daily dosage in olfactory bulbectomy rat ([2]; olfactory bulbectomy rat, oral) | score of emotional responses [2] | score of emotional responses (in words) ([2]; olfactory bulbectomy rat, 10 mg/kg orally twice a day, FIG. 2) | time in the open arms on the elevated plus-maze ([3]; eighth day, 1 hour after first dosage, 5 minutes period, FIG. 3)
Cc1cc(C)cc([C@@H](CC(C)C)NC(=O)c2cc(COc3cc(F)ccc3F)ccc2CCC(=O)O)c1 [compound (II), 3-(2-(((1R)-3-methyl-1-(3,5-dimethylphenyl)butyl)carbamoyl)-4-(2,5-difluorophenoxymethyl)phenyl)propanoic acid] | inhibited | equivalent effect | equivalent effect | – | – | – | –
Cc1cc(C)cc([C@@H](CC(C)C)NC(=O)c2cc(COc3cc(C)ccc3C)ccc2CCC(=O)O)c1 [compound (III), 3-(2-(((1R)-3-methyl-1-(3,5-dimethylphenyl)butyl)carbamoyl)-4-(2,5-dimethylphenoxymethyl)phenyl)propanoic acid] | inhibited | equivalent effect | equivalent effect | – | – | – | –
CNCCCN1c2ccccc2CCc2ccccc21 [desipramine hydrochloride, reference compound] | – | – | – | 20 mg/kg per day | 7.5±3.4 | – | –
Cc1cc(C)cc([C@@H](CC(C)C)NC(=O)c2cc(COc3cc(F)ccc3C)ccc2CCC(=O)O)c1 [compound (I), 3-(2-((((1R)-1-(3,5-dimethylphenyl)-3-methylbutyl)amino)carbonyl)-4-(5-fluoro-2-methylphenoxymethyl)phenyl)propanoic acid] | inhibited | has antidepressant effect | has antianxiety effect | – | 6.2±4.6 | decreased significantly | improved significantly
